# According to article PMC5762315, “Inhibition of polo-like kinase 4 (PLK4): a new therapeutic option for rhabdoid tumors and pediatric medulloblastoma” (Oncotarget, 2017):
# Several values for one entry are separate records, joined by “and”; a condition that tells them apart may be missing. Equal entries are not always repeated.
# Assays:
# various kinases [1] = biological target: various kinases (Homo sapiens, UniProt P53779); experiment: LanthaScreen Eu Kinase Binding Assay, panel of 486 biochemical kinase assays; conditions: MAPK10 (JNK3)
# Chain of various kinases (Homo sapiens, UniProt P53779) (P53779 whole entry): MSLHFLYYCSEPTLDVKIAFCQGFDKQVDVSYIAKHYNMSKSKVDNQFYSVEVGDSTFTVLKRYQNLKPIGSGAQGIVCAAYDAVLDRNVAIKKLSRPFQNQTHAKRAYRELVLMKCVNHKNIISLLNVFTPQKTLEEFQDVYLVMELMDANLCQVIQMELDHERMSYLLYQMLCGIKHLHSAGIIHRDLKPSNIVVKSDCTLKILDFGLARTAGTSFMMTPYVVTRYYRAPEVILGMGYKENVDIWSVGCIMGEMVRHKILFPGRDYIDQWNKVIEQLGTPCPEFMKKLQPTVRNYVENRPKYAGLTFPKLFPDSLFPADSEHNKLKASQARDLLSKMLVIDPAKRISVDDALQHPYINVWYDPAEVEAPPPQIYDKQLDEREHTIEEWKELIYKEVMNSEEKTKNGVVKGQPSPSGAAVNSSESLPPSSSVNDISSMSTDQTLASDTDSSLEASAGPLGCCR
# various kinases [2] = biological target: various kinases (Homo sapiens, UniProt P00519, M351T); experiment: as above; conditions: ABL1 M351T
# various kinases [3] = biological target: T1, various kinases (Homo sapiens, UniProt Q9H2K8); experiment: as above; conditions: kinase TAOK3 (JIK); LanthaScreen Binding
# T1 sequence (Q9H2K8 1-898): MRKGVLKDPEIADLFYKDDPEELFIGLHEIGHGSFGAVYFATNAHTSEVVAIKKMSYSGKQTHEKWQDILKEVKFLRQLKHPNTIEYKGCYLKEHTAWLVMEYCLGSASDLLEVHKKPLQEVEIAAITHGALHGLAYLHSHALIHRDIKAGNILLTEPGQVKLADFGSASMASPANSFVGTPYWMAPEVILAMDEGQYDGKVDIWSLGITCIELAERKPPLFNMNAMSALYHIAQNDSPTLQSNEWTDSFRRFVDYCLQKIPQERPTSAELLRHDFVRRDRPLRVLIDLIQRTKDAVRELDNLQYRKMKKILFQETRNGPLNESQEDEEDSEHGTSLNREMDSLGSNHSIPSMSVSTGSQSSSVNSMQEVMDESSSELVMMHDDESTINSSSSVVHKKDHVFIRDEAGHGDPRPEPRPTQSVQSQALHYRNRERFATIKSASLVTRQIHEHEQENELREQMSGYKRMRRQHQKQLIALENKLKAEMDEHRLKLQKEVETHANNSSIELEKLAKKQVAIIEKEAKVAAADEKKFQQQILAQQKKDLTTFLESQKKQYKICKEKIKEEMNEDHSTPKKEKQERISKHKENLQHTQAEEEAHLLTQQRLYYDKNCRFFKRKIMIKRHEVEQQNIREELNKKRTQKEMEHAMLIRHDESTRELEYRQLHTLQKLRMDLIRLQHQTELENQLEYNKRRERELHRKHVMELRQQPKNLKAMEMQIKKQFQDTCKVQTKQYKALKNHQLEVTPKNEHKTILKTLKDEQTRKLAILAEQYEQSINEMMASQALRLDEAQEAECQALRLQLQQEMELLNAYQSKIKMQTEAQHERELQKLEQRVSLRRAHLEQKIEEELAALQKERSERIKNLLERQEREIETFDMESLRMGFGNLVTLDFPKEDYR
# various kinases [4] = biological target: various kinases (Homo sapiens, UniProt P30530, R499C); experiment: as above; conditions: AXL R499C
# Chain of various kinases (Homo sapiens, UniProt P30530, R499C) (P30530 26-894 R499C): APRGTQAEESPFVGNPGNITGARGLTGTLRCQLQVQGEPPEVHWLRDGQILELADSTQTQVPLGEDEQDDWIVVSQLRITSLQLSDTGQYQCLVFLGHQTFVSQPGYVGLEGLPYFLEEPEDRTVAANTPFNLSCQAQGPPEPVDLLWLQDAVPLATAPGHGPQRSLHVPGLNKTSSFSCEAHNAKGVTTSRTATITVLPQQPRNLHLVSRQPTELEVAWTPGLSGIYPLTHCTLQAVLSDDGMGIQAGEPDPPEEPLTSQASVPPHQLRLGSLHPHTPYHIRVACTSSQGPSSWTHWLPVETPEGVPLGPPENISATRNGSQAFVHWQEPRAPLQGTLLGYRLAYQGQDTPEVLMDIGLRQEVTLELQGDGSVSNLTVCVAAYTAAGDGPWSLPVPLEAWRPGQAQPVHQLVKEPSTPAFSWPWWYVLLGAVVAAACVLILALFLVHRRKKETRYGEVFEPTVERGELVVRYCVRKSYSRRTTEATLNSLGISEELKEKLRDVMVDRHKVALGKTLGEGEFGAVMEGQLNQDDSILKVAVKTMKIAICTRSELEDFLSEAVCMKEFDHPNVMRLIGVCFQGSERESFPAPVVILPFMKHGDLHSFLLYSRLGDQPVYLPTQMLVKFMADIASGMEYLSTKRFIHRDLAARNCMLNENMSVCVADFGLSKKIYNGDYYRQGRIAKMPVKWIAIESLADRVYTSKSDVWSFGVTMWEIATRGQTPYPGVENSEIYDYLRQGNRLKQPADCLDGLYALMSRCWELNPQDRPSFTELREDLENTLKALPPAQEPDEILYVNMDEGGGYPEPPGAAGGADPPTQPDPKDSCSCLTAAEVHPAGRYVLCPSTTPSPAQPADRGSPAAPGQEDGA
# various kinases [5] = biological target: various kinases (Homo sapiens, UniProt Q99683); experiment: as above; conditions: MAP3K5 (ASK1)
# various kinases [6] = biological target: various kinases (Homo sapiens, UniProt Q9Y2H1); experiment: as above; conditions: kinase STK38L (NDR2); LanthaScreen Binding
# Chain of various kinases (Homo sapiens, UniProt Q9Y2H1) (Q9Y2H1 whole entry): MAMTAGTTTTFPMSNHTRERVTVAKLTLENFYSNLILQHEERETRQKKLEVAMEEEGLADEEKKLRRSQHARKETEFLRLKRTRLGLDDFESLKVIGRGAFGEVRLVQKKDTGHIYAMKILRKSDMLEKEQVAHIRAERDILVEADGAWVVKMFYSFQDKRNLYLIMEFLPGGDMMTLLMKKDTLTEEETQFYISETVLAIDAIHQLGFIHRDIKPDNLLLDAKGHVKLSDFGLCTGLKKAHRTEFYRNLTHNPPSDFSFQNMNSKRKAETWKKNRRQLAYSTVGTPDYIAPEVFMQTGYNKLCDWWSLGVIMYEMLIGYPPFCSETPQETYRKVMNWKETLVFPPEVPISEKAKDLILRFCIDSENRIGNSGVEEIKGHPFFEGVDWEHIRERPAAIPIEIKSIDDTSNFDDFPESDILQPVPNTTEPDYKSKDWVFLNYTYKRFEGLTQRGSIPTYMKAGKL
# various kinases [7] = biological target: various kinases (Homo sapiens, UniProt Q04771, R206H); experiment: as above; conditions: ACVR1 (ALK2) R206H
# Chain of various kinases (Homo sapiens, UniProt Q04771, R206H) (Q04771 21-509 R206H): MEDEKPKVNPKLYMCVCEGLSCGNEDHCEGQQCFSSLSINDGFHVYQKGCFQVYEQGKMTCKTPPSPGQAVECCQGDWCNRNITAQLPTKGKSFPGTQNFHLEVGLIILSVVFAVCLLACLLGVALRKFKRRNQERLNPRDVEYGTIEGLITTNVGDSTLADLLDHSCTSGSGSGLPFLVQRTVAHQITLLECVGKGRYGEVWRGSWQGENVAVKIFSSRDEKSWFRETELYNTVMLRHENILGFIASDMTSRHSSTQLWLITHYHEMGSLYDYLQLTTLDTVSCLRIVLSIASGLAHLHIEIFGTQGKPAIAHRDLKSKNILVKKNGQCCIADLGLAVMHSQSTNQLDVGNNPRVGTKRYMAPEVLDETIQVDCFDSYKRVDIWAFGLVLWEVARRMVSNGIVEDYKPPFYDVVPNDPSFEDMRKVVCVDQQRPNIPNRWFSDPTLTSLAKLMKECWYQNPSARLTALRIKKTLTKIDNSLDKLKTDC
# various kinases [8] = biological target: various kinases (Homo sapiens, UniProt O94921); experiment: as above; conditions: CDK14 (PFTK1)/cyclin Y
# Chain of various kinases (Homo sapiens, UniProt O94921) (O94921 whole entry): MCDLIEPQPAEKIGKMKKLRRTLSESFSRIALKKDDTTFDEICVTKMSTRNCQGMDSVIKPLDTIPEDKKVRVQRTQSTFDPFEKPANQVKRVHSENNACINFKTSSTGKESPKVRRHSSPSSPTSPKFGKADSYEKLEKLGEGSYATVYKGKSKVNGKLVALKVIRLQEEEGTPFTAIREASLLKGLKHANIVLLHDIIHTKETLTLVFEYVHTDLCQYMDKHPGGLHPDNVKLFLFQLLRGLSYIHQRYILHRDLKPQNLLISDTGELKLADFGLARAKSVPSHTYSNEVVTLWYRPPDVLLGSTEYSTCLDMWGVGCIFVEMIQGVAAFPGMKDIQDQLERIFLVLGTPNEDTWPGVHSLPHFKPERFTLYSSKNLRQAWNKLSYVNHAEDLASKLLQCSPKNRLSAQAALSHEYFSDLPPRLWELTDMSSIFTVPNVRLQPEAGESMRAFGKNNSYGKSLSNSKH
# various kinases [9] = biological target: various kinases (Homo sapiens, UniProt Q9UM73, F1174L); experiment: as above; conditions: ALK F1174L
# various kinases [10] = biological target: various kinases (Homo sapiens, UniProt P06241); experiment: as above; conditions: FYN A
# various kinases [11] = biological target: various kinases (Homo sapiens, UniProt P52564); experiment: as above; conditions: MAP2K6 (MKK6)
# various kinases [12] = biological target: various kinases (Homo sapiens, UniProt O75460); experiment: as above; conditions: ERN1
# various kinases [13] = biological target: various kinases (Homo sapiens, UniProt Q8TD08); experiment: as above; conditions: MAPK15 (ERK7)
# various kinases [14] = biological target: various kinases (Homo sapiens, UniProt P57058); experiment: as above; conditions: HUNK
# various kinases [15] = biological target: various kinases (Homo sapiens, UniProt P10721, A829P); experiment: as above; conditions: KIT A829P
# [16] = system: G401, BT-12, BT-16, DAOY and D283 cell lines; experiment: Immunofluorescence for gamma-tubulin (centriole number), other RT and MB lines; format: cell-based, human
# Procedure: The cells were then blocked in blocking buffer (5% BSA (Jackson Immuno Research Laboratories Inc., USA) in PBST) for 1 hour at RT. The primary antibody ([…] 1:500, Sigma, USA) diluted in 1% BSA in PBST was then added and incubated at 4°C overnight. Then, the cells were washed with 1X PBS thrice. Secondary antibody (Anti-Rabbit IgG (H+L) F (ab’) 2, 1:500, Sigma, USA) diluted in 1% BSA in PBST was added and incubated at RT for 2 hours. Three time washes with 1X PBS were performed. Then, 1mL of DAPI (Thermo Fisher Scientific, USA) in PBS (0.5μl of DAPI in 10 ml PBS) was added to the cells and incubated for 10 min at RT. Finally, 3 time washes with 1X PBS were performed and slides were mounted using Mounting Medium (Thermo Fisher Scientific, USA).
# various kinases [17] = biological target: various kinases (Homo sapiens, UniProt Q13164); experiment: biochemical; format: biochemical; conditions: MAPK7 (ERK5)
# various kinases [18] = biological target: various kinases (Homo sapiens, UniProt P51957); experiment: biochemical; format: biochemical; conditions: NEK4
# Chain of various kinases (Homo sapiens, UniProt P51957) (P51957 whole entry): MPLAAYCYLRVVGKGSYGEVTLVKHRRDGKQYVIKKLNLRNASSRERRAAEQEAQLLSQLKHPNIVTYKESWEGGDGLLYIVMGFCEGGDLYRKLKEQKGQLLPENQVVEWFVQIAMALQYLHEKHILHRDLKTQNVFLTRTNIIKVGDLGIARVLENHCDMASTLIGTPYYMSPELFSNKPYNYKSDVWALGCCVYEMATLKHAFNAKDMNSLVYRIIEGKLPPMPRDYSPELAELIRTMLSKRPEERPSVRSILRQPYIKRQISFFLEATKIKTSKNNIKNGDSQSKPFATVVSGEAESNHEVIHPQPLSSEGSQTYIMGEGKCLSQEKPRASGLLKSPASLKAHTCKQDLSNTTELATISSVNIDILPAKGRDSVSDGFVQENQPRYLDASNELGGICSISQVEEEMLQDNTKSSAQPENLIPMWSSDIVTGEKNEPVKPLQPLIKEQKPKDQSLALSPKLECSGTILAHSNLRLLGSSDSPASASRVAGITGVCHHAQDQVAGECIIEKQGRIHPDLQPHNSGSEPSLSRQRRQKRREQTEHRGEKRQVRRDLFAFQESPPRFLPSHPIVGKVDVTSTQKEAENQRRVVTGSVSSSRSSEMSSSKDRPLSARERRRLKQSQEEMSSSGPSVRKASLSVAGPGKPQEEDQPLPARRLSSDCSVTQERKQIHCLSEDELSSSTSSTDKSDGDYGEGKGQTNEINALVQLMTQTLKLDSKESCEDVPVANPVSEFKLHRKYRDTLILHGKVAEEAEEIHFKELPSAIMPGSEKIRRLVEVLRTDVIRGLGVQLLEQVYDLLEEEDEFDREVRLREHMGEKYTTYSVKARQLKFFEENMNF
# various kinases [19] = biological target: various kinases (Homo sapiens, UniProt P23443); experiment: biochemical; format: biochemical; conditions: kinase RPS6KB1 (p70S6K); ZLYTE
# Chain of various kinases (Homo sapiens, UniProt P23443) (P23443 whole entry): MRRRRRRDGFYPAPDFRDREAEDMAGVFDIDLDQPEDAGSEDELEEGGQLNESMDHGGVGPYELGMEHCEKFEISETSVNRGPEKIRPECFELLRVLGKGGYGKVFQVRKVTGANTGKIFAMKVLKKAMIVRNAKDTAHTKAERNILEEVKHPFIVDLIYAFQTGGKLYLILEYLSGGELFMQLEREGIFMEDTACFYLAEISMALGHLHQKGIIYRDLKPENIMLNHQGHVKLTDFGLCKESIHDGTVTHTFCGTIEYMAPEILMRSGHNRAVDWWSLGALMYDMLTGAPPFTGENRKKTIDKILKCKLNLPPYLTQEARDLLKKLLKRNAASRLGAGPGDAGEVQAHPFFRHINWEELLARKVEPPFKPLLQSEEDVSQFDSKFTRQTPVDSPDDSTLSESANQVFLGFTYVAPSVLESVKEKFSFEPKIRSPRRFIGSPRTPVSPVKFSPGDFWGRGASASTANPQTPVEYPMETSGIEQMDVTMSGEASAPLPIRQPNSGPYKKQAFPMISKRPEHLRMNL
# various kinases [20] = biological target: various kinases (Homo sapiens, UniProt P00519, T315I); experiment: biochemical; format: biochemical; conditions: ABL1 T315I
# various kinases [21] = biological target: various kinases (Homo sapiens, UniProt P53350); experiment: biochemical; format: biochemical; conditions: kinase PLK1; ZLYTE
# Chain of various kinases (Homo sapiens, UniProt P53350) (P53350 whole entry): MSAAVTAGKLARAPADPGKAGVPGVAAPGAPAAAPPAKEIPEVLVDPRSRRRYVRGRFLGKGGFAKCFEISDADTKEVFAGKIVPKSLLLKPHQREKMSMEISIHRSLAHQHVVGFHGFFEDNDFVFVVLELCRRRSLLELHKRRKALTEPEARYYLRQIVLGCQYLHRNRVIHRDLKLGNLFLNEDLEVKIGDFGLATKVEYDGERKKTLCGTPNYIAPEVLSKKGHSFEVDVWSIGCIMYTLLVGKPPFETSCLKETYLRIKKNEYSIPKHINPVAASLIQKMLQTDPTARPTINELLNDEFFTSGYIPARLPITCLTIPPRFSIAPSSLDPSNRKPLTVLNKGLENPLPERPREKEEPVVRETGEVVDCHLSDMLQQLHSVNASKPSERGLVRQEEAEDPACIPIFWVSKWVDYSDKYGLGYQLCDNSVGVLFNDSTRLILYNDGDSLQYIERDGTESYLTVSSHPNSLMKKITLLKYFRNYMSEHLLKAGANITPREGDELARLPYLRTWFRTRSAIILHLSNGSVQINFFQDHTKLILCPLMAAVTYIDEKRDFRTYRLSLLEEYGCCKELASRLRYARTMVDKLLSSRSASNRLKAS
# various kinases [22] = biological target: various kinases (Homo sapiens, UniProt P00533, L858R/T790M); experiment: biochemical; format: biochemical; conditions: EGFR (ErbB1) T790M L858R
structure (smiles),measurement,setting,value
COc1ccc2c(c1)[C@]1(C[C@H]1c1ccc3c(/C=C/c4ccc(CN5C[C@@H](C)O[C@@H](C)C5)cc4)n[nH]c3c1)C(=O)N2 [CFI-400945],% Inhibition,various kinases [1],3% and -3%
same,% Inhibition,various kinases [2],78% and 79%
same,% Inhibition Average,various kinases [3],10%
same,% Inhibition Duplicate #1,various kinases [3],14%
same,% Inhibition Duplicate #2,various kinases [3],6%
same,% Inhibition,various kinases [4],11% and 12%
same,% Inhibition,various kinases [5],-6% and -3%
same,% Inhibition Average,various kinases [6],16%
same,% Inhibition Duplicate #1,various kinases [6],10%
same,% Inhibition Duplicate #2,various kinases [6],21%
same,% Inhibition,various kinases [7],9% and 13%
same,% Inhibition,various kinases [8],-4% and 2%
same,% Inhibition,various kinases [9],52% and 50%
same,% Inhibition,various kinases [10],8%
same,% Inhibition,various kinases [11],14%
same,% Inhibition,various kinases [12],3% and 7%
same,% Inhibition,various kinases [13],11% and 8%
same,% Inhibition,various kinases [14],21% and 22%
same,% Inhibition,various kinases [15],0% and 7%
same,centrioles' number,[16]; 100nM,increase
same,centrioles' number,[16]; 500nM,significant decrease
same,% Inhibition,various kinases [17],-2% and 0%
same,% Inhibition,various kinases [18],3% and 1%
same,% Inhibition Average,various kinases [19],7%
same,% Inhibition Duplicate #1,various kinases [19],6%
same,% Inhibition Duplicate #2,various kinases [19],8%
same,% Inhibition,various kinases [20],83% and 78%
same,IC50,various kinases [20],27.2 nM
same,% Inhibition Average,various kinases [21],5%
same,% Inhibition Duplicate #1,various kinases [21],6%
same,% Inhibition Duplicate #2,various kinases [21],5%
same,% Inhibition,various kinases [22],5% and 4%
